Reference: the CombiSolv-Exp solvation set (Vermeire and Green 2021)

Assay: solvent given as SMILES

Clc1cc(Cl)c(-c2cc(Cl)ccc2Cl)c(Cl)c1
Conditions | solvation free energy, 298 K [kcal/mol]
in O | -2.25

C1CNC1
Conditions | solvation free energy, 298 K [kcal/mol]
in O | -5.56

CCC(CC)CO
Conditions | solvation free energy, 298 K [kcal/mol]
in O | -3.73

II
Conditions | solvation free energy, 298 K [kcal/mol]
in Brc1ccccc1 | -6.1
in CC(C)CC(C)(C)C | -4.5
in CCCCCC | -4.67
in CCCCCCC | -4.66
in CCCCCl | -5.63
in CCO | -6.27
in Cc1ccc(C)cc1 | -6.21
in Cc1cccc(C)c1 | -6.25
in Cc1ccccc1C | -6.23
in ClC(Cl)(Cl)Cl | -5.25
in ClC(Cl)Cl | -5.73
in ClCCCl | -5.72
in ClCCl | -5.62
in Clc1ccccc1 | -5.81
in O | -2.54

CCc1ccc(CC)cc1
Conditions | solvation free energy, 298 K [kcal/mol]
in CC(C)(C)O | -6.3

CCN(N=O)C(C)C
Conditions | solvation free energy, 298 K [kcal/mol]
in O | -5.46

CCC(CC)(CC)CC
Conditions | solvation free energy, 298 K [kcal/mol]
in CCCCCC | -5.88
in CO | -4.3

O=C1NC(=O)C(c2ccccc2)(c2ccccc2)N1
Conditions | solvation free energy, 298 K [kcal/mol]
in O | -16.7

c1ccc2c(c1)Cc1ccccc1C2
Conditions | solvation free energy, 298 K [kcal/mol]
in O | -3.78

Cc1ccc2ccccc2c1
Conditions | solvation free energy, 298 K [kcal/mol]
in O | -2.18

O=C(O)c1cccc(Cl)c1
Conditions | solvation free energy, 298 K [kcal/mol]
in C1CCOC1 | -11.2
in C1COCCO1 | -10.9
in CC(C)CCO | -10.5
in CC(C)CO | -10.5
in CC(C)O | -10.7
in CC(C)OC(C)C | -10.1
in CCC(C)O | -10.6
in CCCCCCCCCCO | -10.3
in CCCCCCCCO | -10.4
in CCCCCCCO | -10.5
in CCCCCCO | -10.6
in CCCCCO | -10.6
in CCCCCOC(C)=O | -10.1
in CCCCO | -10.6
in CCCCOC(C)=O | -10.2
in CCCO | -10.7
in CCO | -10.7
in CCOC(C)=O | -10.4
in CCOCC | -10.5
in O | -7.03

O=C1c2ccccc2C(=O)c2c(Cl)cccc21
Conditions | solvation free energy, 298 K [kcal/mol]
in C1CCOC1 | -15
in CC(=O)N(C)C | -14.9
in CC(C)(C)O | -12.6
in CC(C)CC(C)(C)C | -12
in CC(C)CC(C)O | -12.7
in CC(C)CCO | -12.7
in CC(C)CO | -12.6
in CC(C)O | -12.6
in CCC(C)O | -12.7
in CCCC(C)CO | -12.8
in CCCC(C)O | -12.8
in CCCCCC | -12.2
in CCCCCCC | -12.3
in CCCCCCCC | -12.3
in CCCCCCCCCC | -12.4
in CCCCCCCCCCO | -13.1
in CCCCCCCCO | -13.1
in CCCCCCCO | -13.1
in CCCCCCO | -13.1
in CCCCCO | -12.9
in CCCCCOC(C)=O | -13.9
in CCCCO | -12.8
in CCCCOC(C)=O | -14
in CCCCOCCCC | -13.1
in CCCO | -12.8
in CCCOC(C)=O | -14.1
in CCOC(C)=O | -14.2
in CCOCC | -13.4
in CO | -12.7
in COC(C)(C)C | -13.4
in COC(C)=O | -14.3
in Fc1ccccc1 | -14.6
in O | -8.23

CCCCCBr
Conditions | solvation free energy, 298 K [kcal/mol]
in O | -0.1

CCCN(CC1CC1)c1c([N+](=O)[O-])cc(C(F)(F)F)cc1[N+](=O)[O-]
Conditions | solvation free energy, 298 K [kcal/mol]
in O | -2.45

C=CCCCCCCCC
Conditions | solvation free energy, 298 K [kcal/mol]
in CN(C)C=O | -5.12
in O | 2.24
in OCCOCCO | -3.32
in OCCOCCOCCO | -3.58
in OCCOCCOCCOCCO | -3.78

CC1=CC2C(CC1)C2(C)C (centres undefined)
Conditions | solvation free energy, 298 K [kcal/mol]
in O | 0.78

CCCOC(=O)c1ccccc1C(=O)OCCC
Conditions | solvation free energy, 298 K [kcal/mol]
in O | -7.56

c1ccc2c(c1)ccc1c3ccccc3ccc21
Conditions | solvation free energy, 298 K [kcal/mol]
in CCCCCCCCC=CCCCCCCCC(=O)OCC(COC(=O)CCCCCCCC=CCCCCCCCC)OC(=O)CCCCCCCC=CCCCCCCCC | -13.9
in O | -6.53

c1ccc2c(c1)-c1cccc3cccc-2c13
Conditions | solvation free energy, 298 K [kcal/mol]
in C1COCCO1 | -13
in CC(=O)N(C)C | -13.2
in CC(C)CC(C)(C)C | -11.2
in CC(C)CC(C)O | -11.2
in CC(C)CCO | -11.2
in CC(C)CO | -11.1
in CC(C)O | -11.1
in CCC(C)(C)O | -11.3
in CCC(C)O | -11.2
in CCCC(C)CO | -11.4
in CCCC(C)O | -11.4
in CCCCC(CC)CO | -11.5
in CCCCCC | -11.5
in CCCCCCC | -11.6
in CCCCCCCC | -11.6
in CCCCCCCCC=CCCCCCCCC(=O)OCC(COC(=O)CCCCCCCC=CCCCCCCCC)OC(=O)CCCCCCCC=CCCCCCCCC | -12.2
in CCCCCCCCCC | -11.7
in CCCCCCCCO | -11.8
in CCCCCCCO | -11.9
in CCCCCCO | -11.7
in CCCCCO | -11.6
in CCCCCl | -12.8
in CCCCO | -11.5
in CCCCOC(C)=O | -12.7
in CCCCOCCCC | -12.1
in CCCO | -11.3
in CCO | -11.4
in CCOC(C)=O | -12.7
in CCOCC | -12.4
in CN(C)C=O | -13.2
in CO | -11.2
in COC(C)(C)C | -12.2
in ClC(Cl)(Cl)Cl | -12.7
in ClC(Cl)Cl | -13
in ClCCCl | -13
in O | -4.69

CCCC(C)(C)O
Conditions | solvation free energy, 298 K [kcal/mol]
in CCCCCCCC | -4.59
in CCCCCCCCCC | -4.54
in O | -3.92

Cc1nnc(NS(=O)(=O)c2ccc(N)cc2)s1
Conditions | solvation free energy, 298 K [kcal/mol]
in O | -19.3

CCCCC(O)CC (centres undefined)
Conditions | solvation free energy, 298 K [kcal/mol]
in O | -3.94

CC(=O)C(C)C(C)=O
Conditions | solvation free energy, 298 K [kcal/mol]
in O | -4.75

Nc1ccccc1-c1ccccc1
Conditions | solvation free energy, 298 K [kcal/mol]
in O | -7.27

CCCO
Conditions | solvation free energy, 298 K [kcal/mol]
in Brc1ccccc1 | -3.66
in C1CCOC1 | -5.22
in C1COCCO1 | -4.52
in C=CCCCCCCCCCCCCCC | -2.96
in CC#N | -4.84
in CC(C)(C)O | -5.55
in CC(C)CC(C)(C)C | -3
in CC(C)CCCC(C)CCCC(C)CCCCC(C)CCCC(C)CCCC(C)C | -2.6
in CC(C)CO | -5.44
in CC(C)O | -5.53
in CC(C)OC(C)C | -4.39
in CCC1CO1 | -5.09
in CCC(C)=O | -4.97
in CCCC(C)O | -5.34
in CCCCC(CC)COC(=O)CCCCC(=O)OCC(CC)CCCC | -4.07
in CCCCCC | -2.99
in CCCCCCC | -2.97
in CCCCCCCC | -2.91
in CCCCCCCCC=CCCCCCCCC(=O)OCC(COC(=O)CCCCCCCC=CCCCCCCCC)OC(=O)CCCCCCCC=CCCCCCCCC | -3.96
in CCCCCCCCCC | -2.76
in CCCCCCCCCCCCCCCC | -2.7
in CCCCCCCCCCO | -4.8
in CCCCCCCCO | -5.02
in CCCCCO | -5.43
in CCCCO | -5.22
in CCCCOC(C)=O | -4.65
in CCCOCCC | -4.2
in CCO | -5.69
in CCOC(=O)c1ccccc1C(=O)OCC | -4.09
in CCOCCO | -5.33
in CCOP(=O)(OCC)OCC | -5.39
in CN1CCCC1=O | -5.69
in CN1CCN(C)C1=O | -5.51
in CN(C)C=O | -5.57
in CO | -5.92
in COC(C)(C)C | -4.6
in COC(C)=O | -4.88
in Cc1ccc(C)cc1 | -3.73
in Cc1cccc(C)c1 | -3.72
in ClC(Cl)(Cl)Cl | -3.53
in Clc1ccccc1 | -3.83
in FC(F)(F)C(F)(F)C(F)(F)C(F)(F)C(F)(F)C(F)(F)C(F)(F)F | -1.69
in FC(F)(F)C(F)(F)C(F)(F)C(F)(F)C(F)(F)C(F)(F)F | -1.74
in NC=O | -4.84
in O | -4.88
in O=CN1CCOCC1 | -5.02
in OCC(O)CO | -4.37
in OCCOCCO | -5.2
in [2H]O[2H] | -4.95
in c1ccccc1 | -3.97

S
Conditions | solvation free energy, 298 K [kcal/mol]
in Brc1ccccc1 | -1.3
in C1CCC2CCCCC2C1 | -0.99
in CC1COC(=O)O1 | -1.49
in CC(=O)N(C)C | -2.25
in CC(C)=O | -1.9
in CCCCCCCCCCCCCCCC | -0.88
in CN1CCCC1=O | -2.2
in CN(C)C=O | -2.2
in CN(C)P(=O)(N(C)C)N(C)C | -2.64
in CO | -1.72
in COC(=O)CC#N | -1.35
in COCCOCCO | -1.91
in COCCOCCOC | -1.96
in COCCOCCOCCOC | -1.84
in COCCOCCOCCOCCOC | -1.97
in CS(C)=O | -2.04
in Clc1ccccc1 | -1.5
in Nc1ccccc1 | -1.7
in O | -0.65
in O=CN1CCOCC1 | -1.81
in OCCCOCCCO | -1.24
in OCCO | -1.17
in OCCOCCO | -1.34
in OCCOCCOCCO | -1.32
in OCc1ccccc1 | -1.35

CCCCCCC(C)O (centres undefined)
Conditions | solvation free energy, 298 K [kcal/mol]
in CCCCCCC | -5.86
in O | -3.77

Clc1cc(Cl)c(Cl)c(Cl)c1
Conditions | solvation free energy, 298 K [kcal/mol]
in CCCCCCCCO | -7.57
in O | -1.62

CCCCCCCCCCCCCCCCCCCCC
Conditions | solvation free energy, 298 K [kcal/mol]
in CC(=O)N(C)C | -14.3
in CC(C)(C)O | -12.9
in CN(C)C=O | -14.4
in O | 4.71

CCCCN(CC)c1c([N+](=O)[O-])cc(C(F)(F)F)cc1[N+](=O)[O-]
Conditions | solvation free energy, 298 K [kcal/mol]
in O | -3.51

C=C1CCC23C(C)CCC(C(C)C)C2C13 (centres undefined)
Conditions | solvation free energy, 298 K [kcal/mol]
in O | 0.63

COC(=O)c1ccccc1
Conditions | solvation free energy, 298 K [kcal/mol]
in CC(C)CC(C)(C)C | -6.71
in O | -3.91

Clc1ccc2c(c1)Oc1c(Cl)c(Cl)c(Cl)c(Cl)c1O2
Conditions | solvation free energy, 298 K [kcal/mol]
in O | -4.15

Clc1ccccc1
Conditions | solvation free energy, 298 K [kcal/mol]
in C1CCOC1 | -6.04
in C1COCCO1 | -5.78
in CC(=O)N(C)C | -5.01
in CC(C)(C)O | -5.03
in CC(C)=O | -5.65
in CC(C)CC(C)(C)C | -4.92
in CC(C)CCO | -5.12
in CC(C)CO | -5.09
in CC(C)O | -4.92
in CC(O)CO | -4.36
in CCC(C)O | -5.09
in CCCCCC | -5.21
in CCCCCCC | -5.17
in CCCCCCCCCC | -4.93
in CCCCCCCCCCCCCCCC | -4.94
in CCCCCO | -5.21
in CCCCCl | -5.59
in CCOC(C)=O | -5.66
in CN(C)C=O | -5.66
in CNC(C)=O | -5.17
in CO | -5.01
in COCCO | -5.23
in Cc1ccc(C)cc1 | -5.52
in Cc1ccccc1C | -5.59
in ClCCl | -5.91
in N#Cc1ccccc1 | -5.63
in NC=O | -3.58
in O | -1.14
in OCCO | -3.88
